This note sets out measurements from patent publication US20210403465A1, “QUINAZOLINYL-INDAZOLE DERIVATIVES AND THEIR USE AS INHIBITORS OF HUMAN IMMUNODEFICIENCY VIRUS REPLICATION” (ViiV HEALTHCARE UK (NO.5) LIMITED, priority 2018, published 2021).

Data set [1] relates to recombinant NL4-3 virus (Renilla luciferase) in MT-2 cells. Briefly: HIV cell culture assay (antiviral activity, luciferase readout in MT-2 cells). Type of data set: cell-based. As to conditions: NL43. On the procedure: HIV cell culture assay—MT-2 cells, 293T cells and the proviral DNA clone of NL4-3 virus were obtained from the NIH AIDS Research and Reference Reagent Program. MT-2 cells were propagated in RPMI 1640 media supplemented with 10% heat inactivated fetal bovine serum (FBS), […]. The 293T cells were propagated in DMEM media supplemented with 10% heat inactivated FBS, […]. A recombinant NL4-3 proviral clone, in which a section of the nef gene was replaced with the Renilla luciferase gene, was used to make the reference virus used in these studies. The recombinant virus was prepared through transfection of the recombinant NL4-3 proviral clone into 293T cells using Transit-293 Transfection Reagent from Mirus Bio LLC (Madison, Wis.). Supernatant was harvested after 2-3 days and the amount of virus present was titered in MT-2 cells using luciferase enzyme activity as a marker by measuring luciferase enzyme activity. Luciferase was quantitated using the EnduRen Live Cell Substrate from Promega (Madison, Wis.). Antiviral activities of compounds toward the recombinant virus were quantified by measuring luciferase activity in MT-2 cells infected for 4-5 days with the recombinant virus in the presence of serial dilutions of the compound.
The 50% effective concentration (EC50) was calculated by using the exponential form of the median effect equation where (Fa)=1/[1+(ED50/drug conc.)m] (Johnson V A, Byington R T. Infectivity Assay. In Techniques in HIV Research. ed. Aldovini A, Walker B D. 71-76. New York: Stockton Press. 1990). The 50% inhibitory concentration (EC50) was calculated by using the exponential form of the median effect equation where percent inhibition=1/[1+(EC50/drug concentration)m], where m is a parameter that reflects the slope of the concentration-response curve.

Data set [2] in a line: Compound cytotoxicity, XTT-based colorimetric assay. In kind it is cell-based. The settings on record: human; uninfected MT2 cells, day 4, XTT. Here is the method: Compound cytotoxicity and the corresponding CC50 values were determined using the same protocol as described in the antiviral assay except that uninfected cells were used. Cytotoxicity was assessed on day 4 in uninfected MT2 cells by using a XTT (2,3-bis[2-Methoxy-4-nitro-5-sulfophenyl]-2H-tetrazolium-5-carboxyanilide inner salt)-based colorimetric assay (Sigma-Aldrich, St Louis, Mo.).

Some results are limits rather than exact numbers.

For orientation: EC50 means the midpoint of the concentration-response curve. One may read the CC50 as the concentration that lowers cell viability or growth by half. The low end stands for greater toxicity to the cells, the high end for lower toxicity to the cells. With `Cn1nc(NS(C)(=O)=O)c2c(Cl)ccc(-n3c([C@H](Cc4cc(F)cc(F)c4)NC(=O)Cn4nc(C(F)F)c5c4C(F)(F)[C@@H]4C[C@H]54)nc4cc(OC5CCCC5)ccc4c3=O)c21` (atropisomer, axis not shown; (P)) [Example 9, N—((S)-1-((3P)-3-(4-chloro-1-methyl-3-(methylsulfonamido)-1H-indazol-7-yl)-7-(cyclopentyloxy)-4-oxo-3,4-dihydroquinazolin-2-yl)-2-(3,5-difluorophenyl)ethyl)-2-((3bS,4aR)-3-(difluoromethyl)-5,5-difluoro-3b,4,4a,5-tetrahydro-1H-cyclopropa[3,4]cyclopenta[1,2-c]pyrazol-1-yl)acetamide], in data set [1], the EC50 came out at 0.22 nM. The compound further yielded a CC50 at 4 days in data set [2] above 1000 nM.

Turning to `Cn1nc(NS(C)(=O)=O)c2c(Cl)ccc(-n3c([C@H](Cc4cc(F)cc(F)c4)NC(=O)Cn4nc(C(F)F)c5c4C(F)(F)[C@@H]4C[C@H]54)nc4cc(OCCC(C)(C)C)ccc4c3=O)c21` (atropisomer, axis not shown; (P)) [Example 6, N—((S)-1-((3P)-3-(4-chloro-1-methyl-3-(methylsulfonamido)-1H-indazol-7-yl)-7-(3,3-dimethylbutoxy)-4-oxo-3,4-dihydroquinazolin-2-yl)-2-(3,5-difluorophenyl)ethyl)-2-((3bS,4aR)-3-(difluoromethyl)-5,5-difluoro-3b,4,4a,5-tetrahydro-1H-cyclopropa[3,4]cyclopenta[1,2-c]pyrazol-1-yl)acetamide], the EC50 in data set [1] stood at 0.18 nM. This compound yielded a CC50 at 4 days in data set [2] above 1000 nM.

As to `Cn1nc(NS(C)(=O)=O)c2c(Cl)ccc(-n3c([C@H](Cc4cc(F)cc(F)c4)NC(=O)Cn4nc(C(F)F)c5c4C(F)(F)[C@@H]4C[C@H]54)nc4cc(OCCC(C)(C)C(F)(F)F)ccc4c3=O)c21` (atropisomer, axis not shown; (P)) [Example 14, N—((S)-1-((3P)-3-(4-chloro-1-methyl-3-(methylsulfonamido)-1H-indazol-7-yl)-4-oxo-7-(4,4,4-trifluoro-3,3-dimethylbutoxy)-3,4-dihydroquinazolin-2-yl)-2-(3,5-difluorophenyl)ethyl)-2-((3bS,4aR)-3-(difluoromethyl)-5,5-difluoro-3b,4,4a,5-tetrahydro-1H-cyclopropa[3,4]cyclopenta[1,2-c]pyrazol-1-yl)acetamide], the EC50 in data set [1] was 0.23 nM. Further, the CC50 at 4 days in data set [2] is above 500 nM.

As for `Cn1nc(NS(C)(=O)=O)c2c(Cl)ccc(-n3c([C@H](Cc4cc(F)cc(F)c4)NC(=O)Cn4nc(C(F)F)c5c4C(F)(F)[C@@H]4C[C@H]54)nc4cc(OCCn5cccn5)ccc4c3=O)c21` (atropisomer, axis not shown; (P)) [Example 13, N—((S)-1-(7-(2-(1H-pyrazol-1-yl)ethoxy)-(3P)-3-(4-chloro-1-methyl-3-(methylsulfonamido)-1H-indazol-7-yl)-4-oxo-3,4-dihydroquinazolin-2-yl)-2-(3,5-difluorophenyl)ethyl)-2-((3bS,4aR)-3-(difluoromethyl)-5,5-difluoro-3b,4,4a,5-tetrahydro-1H-cyclopropa[3,4]cyclopenta[1,2-c]pyrazol-1-yl)acetamide], the EC50 in data set [1] was determined as 0.032 nM. The compound also gave a half-maximal cytotoxic concentration (CC50) at 4 days in data set [2] above 1000 nM.

Take `Cn1nc(NS(C)(=O)=O)c2c(Cl)ccc(-n3c([C@H](Cc4cc(F)cc(F)c4)NC(=O)Cn4nc(C(F)F)c5c4C(F)(F)[C@@H]4C[C@H]54)nc4cc(OCC5CCCCC5)ccc4c3=O)c21` (atropisomer, axis not shown; (P)) [Example 3, N—((S)-1-((3P)-3-(4-chloro-1-methyl-3-(methylsulfonamido)-1H-indazol-7-yl)-7-(cyclohexylmethoxy)-4-oxo-3,4-dihydroquinazolin-2-yl)-2-(3,5-difluorophenyl)ethyl)-2-((3bS,4aR)-3-(difluoromethyl)-5,5-difluoro-3b,4,4a,5-tetrahydro-1H-cyclopropa[3,4]cyclopenta[1,2-c]pyrazol-1-yl)acetamide]: the EC50 in data set [1] was 0.47 nM. Besides, in data set [2], the CC50 at 4 days is above 1000 nM.
